Results: US20130225623A1, “Methods of Treating Psychiatric or Neurological Disorders with MGLUR Antagonists” (MOUNT SINAI SCHOOL OF MEDICINE, priority 2010, published 2013)
Values joined by “and” are separate entries in the source; they are usually repeats but may differ in a detail not shown here. Equal entries are not always repeated.

Experiments:
Assay type in all cases: cell-based, mouse
[1] = tested on: field EPSPs in hippocampal slices (area CA1); group I mGluRs; test: DHPG-induced long-term depression (mGluR-LTD), hippocampal slice electrophysiology; conditions: for effect of mGluR blockade on DHPG-induced LTD: Cyfip1 heterozygotes, slices incubated with antagonist and DHPG (MPEP 10 μM; LY367385 100 μM); for depression in synaptic transmission (field EPSP slope): at 30 min of application
Description: (§1) Hippocampal slices (350 μm) were prepared from 4-6 week old heterozygous mice and their wild-type littermate controls. Slices were perfused with Ringer's solution containing (in mM): NaCl, 125.0; KCl, 2.5; MgSO4, 1.3; NaH2PO4, 1.0; NaHCO3, 26.2; CaCl2, 2.5; glucose, 11.0. The Ringer's solution was bubbled with 95% O2/5% CO2, at 32° C., during extracellular recordings (electrode solution: 3 M NaCl). Slices were maintained for 1 hr prior to establishment of a baseline of field excitatory postsynaptic potentials (fEPSPs) recorded from stratum radiatum in area CA1, evoked by stimulation of the Schaffer collateral-commissural afferents (100 μs pulses every 30 s) with bipolar tungsten electrodes placed into area CA3 (Bozdagi et al., 2000). Test stimulus intensity was adjusted to obtain fEPSPs with amplitudes that were one-half of the maximal response. The EPSP initial slope (mV/ms) was determined from the average waveform of four consecutive responses. Cycloheximide (60 μM, Sigma), dihydroxyphenylglycine (DHPG, 50 μM, Sigma), 2-methyl-6-phenylethynyl-pyridine (MPEP, 10 μM, Tocris), LY367385 (100 μM, Tocris), or rapamycin (20 nM, Enzo Life Sciences) were bath-applied for various durations as described in the Examples, below.
(§2) All experiments were performed in the presence of 100 μM 2-amino-5-phosphopentanoic acid (AP5). Paired-pulse responses were measured with interstimulus interval (ISI) of 50 ms, and are expressed as the ratio of the average responses to the second stimulation pulse (FP2) to the first stimulation pulse (FP1). LTP was induced by either a high-frequency stimulus (four trains of 100 Hz, 1 s stimulation separated by 5 min), a threshold levels of theta-burst stimulation (TBS) (5 bursts of four pulses at 100 Hz separated by 200 ms, (Lauterborn et al., 2007), or a single 100 Hz stimulation. To induce an mGluR-dependent LTD, Schaffer collaterals were stimulated by a paired-pulse low-frequency-stimulation (PP-LFS, 1 Hz for 20 min; 50 ms interstimulus interval (Huber et al., […]). DHPG-induced LTD was also used as described in the Examples, below
The mammalian target of rapamycin (mTOR) is an important regulator of translation in long-lasting forms of synaptic plasticity and it has been shown that DHPG-induced mGluR-LTD in hippocampal area CA1 is dependent on mTOR (see Richter and Klann, 2009). To determine whether mTOR is required for mGluR-LTD in Cyfip1 heterozygous mice, hippocampal slices were treated with DHPG in the presence of the mTOR inhibitor rapamycin.
Because mGluR5 activation is essential for mGluR-LTD induction, the effect of mGluR5 blockade on DHPG-induced LTD was examined. […] The effect of mGluR1 blockade on DHPG-induced LTD was also examined. […] The slices were next treated with both mGluR1 (LY367385) and mGluR5 (MPEP) antagonists.

[2] = tested on: field EPSPs at Schaffer collateral-CA1 synapses in acute hippocampal slices; test: Paired-pulse low frequency stimulation (PP-LFS)-induced mGluR-LTD, hippocampal slice electrophysiology; conditions: for effect on PP-LFS-induced LTD: cycloheximide 60 μM; for field EPSP slope: in the presence of cycloheximide (60 μM), at 60 min after PP-LFS
Description: as §1, §2
To examine the role of CYFIP1 in mGluR-LTD, field EPSPs were recorded at Schaffer collateral-CA1 synapses in acute hippocampal slices prepared from wild-type and Cyfip1 heterozygous mice.
One of the most striking abnormalities in experimental synaptic plasticity observed in the absence of FMRP is that mGluR-LTD is independent of protein synthesis in these animals. As the Cyfip1 heterozygotes have enhanced LTD, similar to what is observed in the absence of FMRP, mGluR-LTD in the presence of the protein synthesis inhibitor cycloheximide was examined.

[3] = tested on: field EPSPs in hippocampal slices (area CA1); test: Protein synthesis-dependent LTP induced by high frequency stimulation (HFS), hippocampal slice electrophysiology

Cc1cccc(C#Cc2ccccc2)n1 [MPEP, 2-methyl-6-(phenylethynyl)-pyridine]
effect of mGluR blockade on DHPG-induced LTD [1]: did not cause any change

Cc1cc(C(=O)O)ccc1[C@H](N)C(=O)O [LY367385]
effect of mGluR blockade on DHPG-induced LTD [1]: did not cause any change

NC(C(=O)O)c1cc(O)cc(O)c1 (racemic) [DHPG, (RS)-3,5-dihydroxyphenylglycine]
depression in synaptic transmission (field EPSP slope) ([1]; Cyfip1 heterozygous mice, DHPG 50 μM): 70.5±6 % of baseline | depression in synaptic transmission (field EPSP slope) ([1]; wild-type mice, DHPG 50 μM): 81.2±3 % of baseline

C[C@@H]1C[C@@H]([C@H](O)CC2CC(=O)NC(=O)C2)C(=O)[C@@H](C)C1 [cycloheximide]
effect on PP-LFS-induced LTD ([2]; Cyfip1 heterozygous animals): not affected | field EPSP slope ([2]; Cyfip1 heterozygous slices): 68.49±8.9 % of baseline | effect on PP-LFS-induced LTD ([2]; wild-type littermate controls): inhibited LTD | field EPSP slope ([2]; wild-type slices): 98.05±2.5 % of baseline | field EPSP slope [3]: 99±8 % of baseline and 100.8±8.2 % of baseline | inhibition of protein synthesis-dependent LTP, comparison between genotypes ([3]; wild-type vs Cyfip1 heterozygous mice, cycloheximide 60 μM, rapamycin 20 nM): did not differ between genotypes | effect on DHPG-induced LTD ([1]; wild-type mice, 60 μM cycloheximide, DHPG 50 μM): reduced LTD
